Source: the supplement of paper PMC10307832

Key:
Test in all cases: relative viability (nuclei count vs DMSO), 5 days (fraction); higher = more cells survive
[1] = compound: C=C(c1ccc(C(=O)O)cc1)c1cc2c(cc1C)C(C)(C)CCC2(C)C [Bexarotene] + CC(=O)Nc1cccc(-n2c(=O)n(C3CC3)c(=O)c3c(Nc4ccc(I)cc4F)n(C)c(=O)c(C)c32)c1 [Trametinib] (partner 0.02 µM)
How it was run: (§1)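 Values are medians from duplicate plates. Each reflects relative viability, defined as the nuclei count of treated wells over that of vehicle wells. Lung cancer cell lines in 1536-well plates were pin-tool dosed one day after seeding with one drug alone or with a fixed anchor-drug dose plus five library-drug doses (not always all listed) in √10 steps, then fixed, stained and imaged at 4× after 5 days.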

[2] = compound: C=C(c1ccc(C(=O)O)cc1)c1cc2c(cc1C)C(C)(C)CCC2(C)C [Bexarotene] + N=C(N)NC(=N)NCCc1ccccc1 [Phenformin] (partner 250 µM)
How it was run: as §1

[3] = compound: C=C(c1ccc(C(=O)O)cc1)c1cc2c(cc1C)C(C)(C)CCC2(C)C [Bexarotene] + COc1cccc2cc(-c3nc([C@H]4CC[C@H](C(=O)O)CC4)n4ncnc(N)c34)[nH]c12 [OSI-027] (partner 0.5 µM)
How it was run: as §1

[4] = compound: C=C(c1ccc(C(=O)O)cc1)c1cc2c(cc1C)C(C)(C)CCC2(C)C [Bexarotene]
How it was run: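 Nuclei counted with MetaXpress define viability as the ratio of treated to vehicle wells, given as a median across plates. The lung cancer cell lines were in 1536-well plates, pinned with five √10-spaced library-drug doses and imaged at 4× after 5 days and Hoechst staining. Plates passed with control CV below 25% and at least one doubling.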

Cell Line	relative viability ([1]; first compound 0.08 µM)	relative viability ([1]; first compound 0.253 µM)	relative viability ([1]; first compound 0.8 µM)	relative viability ([1]; first compound 2.53 µM)	relative viability ([1]; first compound 8 µM)	relative viability ([2]; first compound 0.08 µM)	relative viability ([2]; first compound 0.253 µM)	relative viability ([2]; first compound 0.8 µM)	relative viability ([2]; first compound 2.53 µM)	relative viability ([2]; first compound 8 µM)	relative viability ([3]; first compound 0.08 µM)	relative viability ([3]; first compound 0.253 µM)	relative viability ([3]; first compound 0.8 µM)	relative viability ([3]; first compound 2.53 µM)	relative viability ([3]; first compound 8 µM)	relative viability ([4]; 0.08 µM)	relative viability ([4]; 0.253 µM)	relative viability ([4]; 0.8 µM)	relative viability ([4]; 2.53 µM)	relative viability ([4]; 8 µM)
ChaGo-K-1	1.02	1.02	0.978	1.05	0.932	0.563	0.496	0.539	0.533	0.536	0.651	0.676	0.715	0.545	0.611	1.09	1.01	1	1.03	0.989
EKVX	0.291	0.359	0.355	0.372	0.295	0.257	0.263	0.224	0.233	0.233	0.706	0.661	0.698	0.63	0.648	0.974	0.98	0.97	1.02	0.891
EMC-BAC-2	1.08	0.901	0.996	–	0.88	0.549	0.575	0.521	0.49	0.546	0.416	0.42	0.385	0.367	0.419	1.15	1.02	1	–	1.02
EPLC-272H	0.318	0.277	0.285	0.322	0.314	0.304	0.27	0.313	0.3	0.373	0.292	0.277	0.26	0.283	0.272	1	0.93	0.802	0.881	0.939
H3255	0.715	0.759	0.615	0.626	0.674	0.391	0.336	0.382	0.419	0.416	0.714	0.538	0.598	0.585	0.6	1.07	0.949	1.05	0.988	1.01
HARA	0.902	0.895	0.642	0.989	0.602	0.523	0.448	0.375	0.398	0.39	0.502	0.494	0.311	0.368	0.423	1.04	1.03	0.838	0.925	0.875
HCC-15	0.372	0.431	0.371	0.371	0.365	0.524	0.533	0.472	0.496	0.475	0.792	0.806	0.631	0.621	0.632	1.1	1.11	1.02	0.978	1.05
HCC-44	1.02	1.03	0.884	0.899	1.08	0.148	0.409	0.27	0.145	0.289	0.58	0.589	0.553	0.496	0.502	0.981	1.02	0.889	0.976	0.932
